Measured values reported in PubChem BioAssay (NCI).
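Five concentrations, 48 hours, 96-well plates. The concentration for full growth arrest is given as TGI.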

Key:
Experiment in all cases: NCI anticancer screen, dose series, 48 h
[1] = test system: 786-0 renal
[2] = test system: T-47D breast
[3] = test system: SK-OV-3 ovarian
[4] = test system: OVCAR-5 ovarian
[5] = test system: RXF 393 renal
[6] = test system: KM12 colon
[7] = test system: CAKI-1 renal
[8] = test system: IGROV1 ovarian
[9] = test system: NCI-H226 lung
[10] = test system: HT29 colon
[11] = test system: DU-145 prostate
[12] = test system: TK-10 renal
[13] = test system: HCT-15 colon
[14] = test system: SNB-19 CNS
[15] = test system: ACHN renal
[16] = test system: M14 melanoma
[17] = test system: K-562 leukemia
[18] = test system: UACC-62 melanoma
[19] = test system: LOX IMVI melanoma
[20] = test system: NCI/ADR-RES ovarian
[21] = test system: SN12C renal
[22] = test system: MOLT-4 leukemia
[23] = test system: MDA-MB-435
[24] = test system: UO-31 renal
[25] = test system: HS 578T breast
[26] = test system: SF-539 CNS
[27] = test system: OVCAR-8 ovarian
[28] = test system: SK-MEL-5 melanoma
[29] = test system: UACC-257 melanoma
[30] = test system: MDA-N
[31] = test system: MCF7 breast
[32] = test system: HOP-62 NSCLC
[33] = test system: SK-MEL-2 melanoma
[34] = test system: RPMI-8226 leukemia
[35] = test system: EKVX NSCLC
[36] = test system: SF-295 CNS
[37] = test system: COLO 205 colon
[38] = test system: CCRF-CEM leukemia
[39] = test system: NCI-H23 lung
[40] = test system: PC-3 prostate
[41] = test system: SK-MEL-28 melanoma
[42] = test system: SF-268 CNS
[43] = test system: MDA-MB-231 breast
[44] = test system: OVCAR-3 ovarian
[45] = test system: U251 CNS
[46] = test system: MALME-3M melanoma
[47] = test system: BT-549 breast
[48] = test system: HL-60(TB) leukemia
[49] = test system: SW-620 colon
[50] = test system: HCT-116 colon

## COc1ccc(/C=C2\CCC(C)c3c2nc(N)c(C#N)c3-c2ccc(OC)c(OC)c2)cc1OC (stereo not given)
[1]
  TGI: > 100 µM
[2]
  TGI: 6.38 µM
[3]
  TGI: > 100 µM
[4]
  TGI: > 100 µM
[5]
  TGI: > 100 µM
[6]
  TGI: > 100 µM
[7]
  TGI: > 100 µM
[8]
  TGI: > 100 µM
[9]
  TGI: > 100 µM
[10]
  TGI: > 100 µM
[11]
  TGI: > 100 µM
[12]
  TGI: > 100 µM
[13]
  TGI: > 100 µM
[14]
  TGI: > 100 µM
[15]
  TGI: > 100 µM
[16]
  TGI: > 100 µM
[17]
  TGI: > 100 µM
[18]
  TGI: > 100 µM
[19]
  TGI: > 100 µM
[20]
  TGI: > 100 µM
[21]
  TGI: > 100 µM
[22]
  TGI: > 100 µM
[23]
  TGI: > 100 µM
[24]
  TGI: > 100 µM
[25]
  TGI: > 100 µM
[26]
  TGI: > 100 µM
[27]
  TGI: > 100 µM
[28]
  TGI: > 100 µM
[29]
  TGI: 75.5 µM
[30]
  TGI: > 100 µM
[31]
  TGI: > 100 µM
[32]
  TGI: 9.95 µM
[33]
  TGI: > 100 µM
[34]
  TGI: > 100 µM
[35]
  TGI: 8.53 µM
[36]
  TGI: > 100 µM
[37]
  TGI: 73.1 µM
[38]
  TGI: > 100 µM
[39]
  TGI: > 100 µM
[40]
  TGI: > 100 µM
[41]
  TGI: > 100 µM
[42]
  TGI: > 100 µM
[43]
  TGI: > 100 µM
[44]
  TGI: > 100 µM
[45]
  TGI: > 100 µM
[46]
  TGI: > 100 µM
[47]
  TGI: > 100 µM
[48]
  TGI: > 100 µM
[49]
  TGI: > 100 µM
[50]
  TGI: > 100 µM
